Results from ChEMBL document CHEMBL5038635, “Discovery of Salidroside-Derivated Glycoside Analogues as Novel Angiogenesis Agents to Treat Diabetic Hind Limb Ischemia” (J Med Chem, 2022).
Calls of active or inactive are those of the source. The rule behind the calls is not given here.

Tests used:
C2C12 [1] = test: Apoptotic rate in hyperglycemia-treated mouse C2C12 cells assessed as early apoptotic cells at 15 uM by AnnexinV-FITC/PI staining based flow cytometric analysis (reference value: 7.10 %); type: functional
C2C12 [2] = test: Reversal of cell migration in mouse C2C12 cells at 30 uM under hyperglycemic condition incubated for 24 hrs by crystal violet dye based transwell chamber assay; type: functional
[3] = Toxicity in diabetic HLI C57BL/6 mouse model assessed as liver pathology at 30 mg/kg, IM administered by HE staining based assay; type: organism-based; details: in vivo
[4] = Dissociation constant, pKa of compound by UV-visible spectrometric method; type: physicochemical
C2C12 [5] = test: Angiogenic activity in mouse C2C12 cells assessed as accumulation ANG1 protein expression at 300 uM by Western blot analysis; type: functional, cell-based
C2C12 [6] = test: Apoptotic rate in hyperglycemia-treated mouse C2C12 cells assessed as early apoptotic cells at 30 uM by AnnexinV-FITC/PI staining based flow cytometric analysis (reference value: 7.10 %); type: functional
C2C12 [7] = test: Induction proliferation of mouse C2C12 cells with silenced HIF-1alpha at 30 uM pretreated with compound in hyperglycemia condition for 12 hr followed by hypoxia condition for 24 hrs by EdU-incorporation assay; type: functional, cell-based; details: time 36.0 hrs
C2C12 [8] = test: Apoptotic rate in mouse C2C12 cells with silenced HIF-1alpha assessed as necrotic cells at 30 uM by AnnexinV-FITC/PI staining based FACS analysis (reference value: 0.31 %); type: functional
C2C12 [9] = test: Angiogenic activity in mouse C2C12 cells assessed as reversal of hyperglycemia-induced reduction in total cell number at 100 uM measured after 24 to 36 hrs by EdU-incorporation assay; type: functional, cell-based; details: time 24-36 hrs
C2C12 [10] = test: Effect on PHD2 mRNA expression in mouse C2C12 cells at 30 uM by qRT-PCR analysis; type: functional, cell-based
[11] = Toxicity in diabetic HLI C57BL/6 mouse model assessed as spleen pathology at 30 mg/kg, IM administered by HE staining based assay; type: organism-based; details: in vivo
C2C12 [12] = test: Upregulation of ANGPTL4 protein expression in mouse C2C12 cells at 30 uM by Western blot analysis; type: functional, cell-based
[13] = Toxicity in diabetic HLI C57BL/6 mouse model assessed as kidney pathology at 30 mg/kg, IM administered by HE staining based assay; type: organism-based; details: in vivo
Mus musculus [14] = test: Antidiabetic activity in diabetic HLI C57BL/6 mouse model assessed as increase in blood perfusion recovery at 30 mg/kg administered intramuscularly measured after 21 days; type: functional; details: time 21 day
Mus musculus [15] = test: Antidiabetic activity in diabetic HLI C57BL/6 mouse model assessed as PDGF-BB protein expression at 30 mg/kg, im administered for 21 days followed by surgery by Western blot analysis; type: functional, organism-based; details: time 21.0 day
C2C12 [16] = test: Upregulation of HO-1 protein expression in mouse C2C12 cells at 30 uM by Western blot analysis; type: functional, cell-based
C2C12 [17] = test: Angiogenic activity in mouse C2C12 cells assessed as reversal of hyperglycemia-induced reduction in total cell number at 30 uM measured after 24 to 36 hrs by EdU-incorporation assay; type: functional, cell-based; details: time 24-36 hrs
C2C12 [18] = test: Angiogenesis activity in mouse C2C12 cells assessed as increase in cell migration at 30 uM under hyperglycemic condition for 12 hrs followed by hypoxia for 24 hrs presence of MeOE2 inhibitor by crystal violet dye based transwell assay; type: functional; details: time 36.0 hrs
C2C12 [19] = test: Upregulation of FGF2 protein expression in mouse C2C12 cells at 30 uM by Western blot analysis; type: functional, cell-based
C2C12 [20] = test: Induction of proliferation of hyperglycemia-induced mouse C2C12 cell death assessed as increase in number of EdU-positive cells at 7.5 to 300 uM pretreated with compound under hyperglycemia condition for 12 hr followed by hypoxia for 24 hrs; type: functional, cell-based; details: dose 7.5-300 µM, time 36.0 hrs
C2C12 [21] = test: Angiogenic activity in mouse C2C12 cells assessed as accumulation PDGF-BB protein expression at 300 uM by Western blot analysis; type: functional, cell-based
MOVAS-1 = test: Induction proliferation of mouse MOVAS-1 assessed as increase in number of EdU-positive cells using conditioned medium of mouse C2C12 cells with silenced HIF-1alpha treated at 30 uM under hyperglycemic condition for 12 hrs followed by hypoxia for 24 hrs by EdU-incorporation assay; type: functional, cell-based; details: time 36.0 hrs
C2C12 [22] = test: Increase in VEGF-A protein expression level in […] mouse C2C12 cells at 30 uM by Western blot analysis; type: functional, cell-based
C2C12 [23] = test: Apoptotic rate in mouse C2C12 cells with silenced HIF-1alpha assessed as late apoptotic cells at 30 uM by AnnexinV-FITC/PI staining based FACS analysis (reference value: 9.62 %); type: functional
Mus musculus [24] = test: Antidiabetic activity in diabetic HLI C57BL/6 mouse model assessed as effect on blood glucose level at 30 mg/kg administered intramuscularly measured after 3 days; type: functional, organism-based; details: time 3.0 day
C2C12 [25] = test: Reversal of hyperglycemia-induced PDGF-BB protein level reduction in mouse C2C12 cells measured at 30 uM by Western blot analysis; type: functional, cell-based
HUVEC = test: Induction proliferation of human HUVEC cells assessed as increase in number of EdU-positive cells using conditioned medium of mouse C2C12 cells treated at 30 uM under hyperglycemic condition for 12 hrs followed by hypoxia for 24 hrs by EdU-incorporation assay; type: functional; details: time 36 hrs
[26] = target: Hypoxia-inducible factor 1-alpha (Mus musculus) (UniProt Q61221); test: Inhibition of HIF-1alpha in mouse C2C12 cells transfected with PDGF-B driven firefly luciferase gene assessed as transcriptional activity pretreated with compound for 12 hr followed by hypoxic condition for 24 hrs by dual luciferase reporter gene assay; type: cell-based; details: time 36.0 hrs
Chain of Hypoxia-inducible factor 1-alpha (Mus musculus) (Q61221 whole entry): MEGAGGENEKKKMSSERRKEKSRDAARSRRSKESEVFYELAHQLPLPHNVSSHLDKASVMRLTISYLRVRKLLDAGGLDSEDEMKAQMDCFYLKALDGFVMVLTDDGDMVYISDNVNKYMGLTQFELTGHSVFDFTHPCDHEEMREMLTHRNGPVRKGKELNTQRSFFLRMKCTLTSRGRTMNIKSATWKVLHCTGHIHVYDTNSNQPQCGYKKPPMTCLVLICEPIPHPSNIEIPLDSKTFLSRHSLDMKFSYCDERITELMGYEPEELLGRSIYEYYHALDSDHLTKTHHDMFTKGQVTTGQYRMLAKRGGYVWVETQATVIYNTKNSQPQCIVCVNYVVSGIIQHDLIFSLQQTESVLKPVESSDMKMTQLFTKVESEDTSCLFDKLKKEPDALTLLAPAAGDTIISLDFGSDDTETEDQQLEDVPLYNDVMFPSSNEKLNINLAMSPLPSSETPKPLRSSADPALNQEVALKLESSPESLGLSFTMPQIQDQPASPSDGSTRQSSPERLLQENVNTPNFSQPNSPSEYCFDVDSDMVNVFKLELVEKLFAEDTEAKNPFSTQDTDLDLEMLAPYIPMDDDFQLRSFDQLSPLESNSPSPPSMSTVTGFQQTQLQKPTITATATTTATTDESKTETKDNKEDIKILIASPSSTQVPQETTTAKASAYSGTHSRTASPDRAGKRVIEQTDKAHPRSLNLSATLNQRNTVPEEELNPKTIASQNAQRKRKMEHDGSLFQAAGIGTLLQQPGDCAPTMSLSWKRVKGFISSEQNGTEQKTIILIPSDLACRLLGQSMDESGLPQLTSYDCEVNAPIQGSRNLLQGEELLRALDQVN

Mus musculus [27] = test: Angiogenic activity in diabetic HLI C57BL/6 mouse model assessed as increase in number of PECAM-1/alpha-SMA double-positive cells at 30 mg/kg, im administered for 21 days followed by surgery by immunofluorescence analysis; type: functional, organism-based; details: time 21.0 day
Mus musculus [28] = test: Angiogenic activity in diabetic HLI C57BL/6 mouse model assessed as HIF-1alpha protein expression at 30 mg/kg, im administered for 21 days followed by surgery by Western blot analysis; type: functional, organism-based; details: time 21.0 day
C2C12 [29] = test: Angiogenic activity in mouse C2C12 cells assessed as accumulation HIF-1alpha protein expression at 300 uM by Western blot analysis; type: functional, cell-based
Mus musculus [30] = test: Antidiabetic activity in diabetic HLI C57BL/6 mouse model assessed as suppression of apoptotic rate in skeletal muscle cell in gastrocnemius muscle at 15 to 30 mg/kg, IM administered by TUNEL assay; type: functional, organism-based; details: dose 15-30 mg/kg
C2C12 [31] = test: Down regulation of PHD3 mRNA expression in mouse C2C12 cells at 30 uM by qRT-PCR analysis; type: functional, cell-based
[32] = Toxicity in diabetic HLI C57BL/6 mouse model assessed as effect on body weight at 15 to 100 mg/kg, im administered measured after 21 days; type: organism-based; details: in vivo, 504 h, dose 15-100 mg/kg, time 21 day
C2C12 [33] = test: Apoptotic rate in mouse C2C12 cells with silenced HIF-1alpha assessed as viable cells at 30 uM by AnnexinV-FITC/PI staining based FACS analysis (reference value: 86.05 %); type: functional; details: read-out: Activity

pKa [4]: > 14 | inhibition [26]: Active
Compound: COc1ccc(Cc2cccc(O[C@@H]3O[C@H](CO)[C@@H](O)[C@H](O)[C@H]3O)c2)cc1
Activity (C2C12 [1]): 3.14% | Activity (C2C12 [2]): Active | Activity [3]: Non-Toxic | inhibition (C2C12 [5]): Active | Activity (C2C12 [6]): 2.13% | Activity (C2C12 [7]): inactive | Activity (C2C12 [8]): 0.16% | Activity (C2C12 [9]): inactive | Activity (C2C12 [10]): inactive | Activity [11]: Non-Toxic | Activity (C2C12 [12]): Active | Activity [13]: Non-Toxic | Activity (Mus musculus [14]): 80% | Activity (Mus musculus [15]): Active | Activity (C2C12 [16]): Active | Activity (C2C12 [17]): inactive | Activity (C2C12 [18]): Active | Activity (C2C12 [19]): Active | Activity (C2C12 [20]): Active | inhibition (C2C12 [21]): Active | Activity (MOVAS-1): Active | Activity (C2C12 [22]): inactive | Activity (C2C12 [23]): 14.63% | Activity (Mus musculus [24]): Active | Activity (C2C12 [25]): Active | fold change (FC) (HUVEC): 2 | Activity (Mus musculus [27]): Active | Activity (Mus musculus [28]): Active | inhibition (C2C12 [29]): Active | Activity (Mus musculus [30]): Active | Activity (C2C12 [31]): Active | Activity [32]: Non-Toxic | viability at 30 µM (C2C12 [33]): 82%
